Non-standard residues stand in square brackets, D forms with d. Residues, ends and D or L forms follow the SMILES beside them. Nle = CCCC[C@H](N)C(=O)O
Experiments:
Assay type in all cases: cell-based, rat
[1] = tested on: CREB reporter mRNA translation in DRG axons; assay: myr-dEGFP3′CREB Sindbis translation reporter in axons; conditions: 40 μM LLnL, within 5 min, myr-dEGFP3′CREB-infected axons
Excerpt: FIGS. 5A-C are results showing NGF-dependent translation of a CREB reporter mRNA in axons. (A) Schematic diagram of the Sindbis viral reporter construct used to monitor CREB translation. The reporter contains a myristoylated, destabilized EGFP (myr-dEGFP) with the 3′UTR of CREB, expressed under control of the Sindbis subgenomic promoter (PSG). (B) E15 DRG explant cultures were infected with Sindbis constructs expressing myr-dEGFP3′CREB on DIV3 and fluorescence (bottom panel) and phase (top panel) images, approximately 1000 μm from the cell body were collected after 24 hours. Fluorescence images are shown in inverted contrast in order to more readily visualize puncta. Scale bar, 25 μm. […] EGFP fluorescence co-localizes with a population of S6-labeled ribosomal clusters. […]
FIGS. 6A-H are data showing that axonal CREB is specifically translated in response to NGF. […] (B) E15 DRG explant cultures were infected with Sindbis constructs expressing myr-dEGFP3′RhoA or myr-dEGFP3′H1f0 on DIV3 and fluorescence images were collected after 24 h. […] (D) Axons from DIV3 DRGs were analyzed for CREB and mitochondrial localizations by immunofluorescence using CREB-specific and VDAC/porin1-specific antibodies. […] CREB mRNA was detected by FISH using a CREB specific riboprobe. […] (H) Axons of DIV3 DRG explant cultures were analyzed by immunofluorescence for NGF effectors CREB, pTrkA and pErk5 at 3 DIV. […]

CREB = CREB levels in severed axons by immunofluorescence; conditions: severed axons, inhibitor present during NGF removal
Experimental: FIGS. 7A-B are results showing the axonal translation and retrograde transport of endogenous CREB. (A) CREB levels in severed axons of E15 DRGs were assayed by immunofluorescence with a CREB-specific antibody. CREB was depleted on removal of NGF, with near complete loss of fluorescence signals by 3 hours. […] The error bars represent s.e.m. (n=40). (B) CREB is depleted from axon terminals in a microtubule-dependent manner. CREB levels in severed axons were monitored, as in A, after removal and restoration of NGF, in the presence of LLnL or colchicine. Colchicine, but not LLnL, blocked the reduction in CREB levels following removal of NGF. The error bars represent s.e.m. (n=40).
E15 rat or E13 mouse embryonic dorsal root ganglion (DRG) explants were plated on glass-bottom culture dishes (MatTek) or glass coverslips pre-coated with 33 μg/ml poly-D-lysine and 1 μg/ml laminin. CREB^α/Δ−/+ animals used to generate CREB^α/Δ−/− embryos were from Jackson Labs. E15 dissociated DRG neurons were prepared as described by Wu et al., Nature 436, 1020-1024 (2005). DRGs were cultured in B27/Neurobasal medium (Invitrogen) supplemented with 100 ng/ml nerve growth factor (NGF) and […] 5′-fluorodeoxyuridine (5-FdU) for 3 days. siRNA-mediated knockdown in DRG neurons has been described previously by Higuchi et al., Biochemical & Biophysical Research Communications 301, 804-809 (2003) and was performed using siRNAs listed in Table S3. For measurements of CREB levels in isolated axons, axons were severed from cell bodies by removing the explant with a flame-sharpened Pasteur pipette (Wu et al., Nature 436, 1020-1024 (2005)). Modified Boyden chambers were based on the procedure of Twiss (Zheng et al., Journal of Neuroscience 21, 9291-9303 (2001)) and modified to obtain distal axons as described by Wu et al., Nature 436, 1020-1024 (2005). mRNA from harvested axons (Wu et al., Nature 436, 1020-1024 (2005)) was used to prepare a cDNA library using a modified, unbiased single cell protocol as described below. See also Tietjen et al., Neuron 38, 161-175 (2003). Compartmented (Campenot) cultures were prepared as described below. See also Campenot, Proc Natl Acad Sci USA 74, 4516-4519 (1977)).
Images and measurements of signals in axons were taken from the terminal 50 μm of the axon, except where indicated. Analyzed axons were a minimum of 2000 μm for all experiments. DRGs were fixed with 4% PFA in CBS overnight at 4° C., permeabilized with 0.5% Triton X-100/TBS, and blocked in 4% BSA/TBS for 1 hour. DRGs were labeled with antibodies (Table S4) in 2% BSA/0.1% Triton X-100/TBS overnight at 4° C. For image acquisition details, see below.
The axonal localization of CREB was also examined by immunofluorescence. Axons were severed from cultured DRG explants to rule out potential contributions from anterograde transport of cell body-derived CREB. […] Although the majority of CREB protein localized to the nucleus, with substantially lower levels in axons (FIG. 4D), the immunofluorescence signal in axons was specific. Similar immunofluorescence staining was seen using a different CREB-specific antibody that recognized a non-overlapping epitope.
The importin proteins, which bind nuclear-localization sequences (NLS) (Goldfarb et al., Trends in Cell Biology 14, 505-514 (2004)), are present in axons and mediate the retrograde trafficking of axonally-injected fluorescently-labeled NLS peptides (Hanz et al., Neuron 40, 1095-1104 (2003)). Since CREB contains a NLS that mediates its nuclear localization (Waeber & Habener, Mol Endocrinol 5, 1418-1430 (1991)), axonal CREB may be retrogradely transported to the cell body. To determine if endogenously-expressed CREB is retrogradely trafficked, we examined the time course of CREB reduction in axons upon replacement of media with NGF-free media. […]

E15 DRG explant cultures = assay: Retrograde transport of photoactivatable Dendra-CREB reporter; conditions: in presence of inhibitor
Experimental: FIGS. 8A-D are results showing the retrograde transport of a photoactivatable fluorescent CREB reporter protein. (A) E15 DRG explant cultures were infected with Sindbis constructs expressing Dendra or Dendra-CREB transcripts. Dendra and Dendra-CREB were visualized as green fluorescence (top panel), and growth cone-localized Dendra[-CREB] was photoactivated to its red form by 50 ms illumination of the boxed regions with a 408 nm laser. Movement of photoactivated Dendra signals was analyzed within the axon determined by green Dendra fluorescence mask. […] Photoactivated Dendra[-CREB] images are shown inverted in order to more readily visualize signals. Scale bar, 10 μm. (B) Quantification of data in (A). […] The expected diffusion rate of Dendra-CREB was calculated at various elapsed time points, using a previously measured diffusion coefficient (D) in neurons (Bloodgood & Sabatini, Science 310, 866-869 (2005)), in the formula x^2=(2Dt), where x is the average displacement. […] (C) Dendra or Dendra-CREB was photoactivated by 1 s illumination of a 40 μm axon segment approximately 1 mm from its respective cell body and levels of photoactivated Dendra fluorescence were analyzed in the respective cell nucleus. […] (D) Quantification of data in (C). n=10 cells per data point. *p=0.0012. […]

SMILES	eGFP fluorescence signal [1]	reduction of CREB levels upon removal of NGF (CREB)	retrograde transport of Dendra-CREB (E15 DRG explant cultures)
CCCC[C@@H](C=O)NC(=O)[C@H](CC(C)C)NC(=O)[C@H](CC(C)C)NC(C)=O [LLnL] (Ac-Leu-Leu-[Nle]-aldehyde)	increased twofold	unaffected	
COc1cc2c(c(OC)c1OC)-c1ccc(OC)c(=O)cc1[C@@H](NC(C)=O)CC2 [colchicine]		abolished the reduction in CREB levels	significantly blocked
C=C(CC)C(=O)c1ccc(OCC(=O)O)c(Cl)c1Cl [ethacrynic acid]			significantly blocked

Source: US12103952B2, “Methods for expressing proteins in axons” (Cornell University, priority 2010, dated 2024)
